≈ marks a conversion by molar mass, not a printed value.

Assay [1] deals with Staphylococcus aureus ATCC 700699 (MRSA). As to the kind of experiment: minimum inhibitory concentration; extreme values may be limits of the assay. An outline of the steps:
(§1)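 Methicillin-susceptible and methicillin-resistant Staphylococcus aureus were tested by broth microdilution in 96-well plates, following CLSI guidance with a resazurin redox read-out. Compounds were tested from 0 to 100 µM and incubated with bacteria for 24 h at 37°C, then 30 µl of 0.015% resazurin was added for 2–4 h, with positive controls on each plate. The minimum inhibitory concentration was the lowest concentration that stayed blue rather than turning pink. Runs were done at least twice in triplicate.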

Assay [2] deals with Staphylococcus aureus ATCC 29213 (MSSA). Described as above. An outline of the steps:
as §1

Turning to `CCC(C)NC(=O)c1ccc(NC(=O)C2(c3ccccc3)CCCC2)cc1` (stereo unspecified), the minimum inhibitory concentration in assay [1] and in assay [2] was more than 50 µM in each case.

With `c1ccc(Oc2ccc(-c3cc(CN4CCOCC4)[nH]n3)cc2)cc1`, the minimum inhibitory concentration in assay [1] and in assay [2] was more than 50 µM each time.

For `CN(C(=O)c1cc2c(-c3cncnc3)cccc2[nH]1)c1ccccc1`, the minimum inhibitory concentration in assay [1] and in assay [2] was more than 50 µM throughout.

As to `O=C(C1CCN(c2cc(-n3cccc3)ncn2)CC1)N1CCc2ccccc2C1`, the minimum inhibitory concentration in assay [1] and in assay [2] was more than 50 µM each time.

Take `Cc1nc(-c2cccc(NCc3ccccc3)c2)[nH]c1C`: the minimum inhibitory concentration in assay [1] and in assay [2] was 50 µM (≈ 13.9 µg/mL) throughout.

For the compound `Nc1c2c(nc3sc4c(c13)CCCC4)CCCC2`, the minimum inhibitory concentration in assay [1] and in assay [2] was more than 50 µM each time.

For the compound `Cc1cc(C(=O)Nc2cnn(Cc3ccc(Cl)cc3Cl)c2)no1`, the minimum inhibitory concentration in assay [1] and in assay [2] was more than 50 µM throughout.

For the compound `Clc1ccc(CN2CCN(C3=NCCN3)CC2)cc1Cl`, the minimum inhibitory concentration in assay [1] and in assay [2] was more than 50 µM in each case.

Turning to `CC1CC1C(=O)NC1CCN(CC2(c3ccccc3)CCCCC2)CC1` (stereo unspecified), the minimum inhibitory concentration in assay [1] and in assay [2] was more than 50 µM in each case.

In the case of `c1ccc(C[C@@H]2CN(c3nccc(Oc4ccc(-n5ccnc5)cc4)n3)CCN2)cc1`, the minimum inhibitory concentration in assay [1] and in assay [2] was more than 50 µM throughout.

`Nc1ncc(-c2ccc(C(F)(F)F)nc2)cc1-c1ccc(C(F)(F)F)nc1`: the minimum inhibitory concentration in assay [1] and in assay [2] was more than 50 µM each time.

Take `O=C(NC1=NCCS1)c1sc2cc(F)ccc2c1Cl`: the minimum inhibitory concentration in assay [1] and in assay [2] was more than 50 µM throughout.

`NCCC(O)C(=O)N[C@@H]1C[C@H](N)[C@@H](OC2O[C@H](CN)[C@@H](O)[C@H](O)[C@H]2O)[C@H](O)C1OC1O[C@H](CO)[C@@H](O)[C@H](N)[C@H]1O` (stereo partly specified): the minimum inhibitory concentration in assay [1] and in assay [2] was more than 50 µM each time.

For `Cc1ccc(NC(=O)c2cc(S(=O)(=O)NC(C)(C)C)ccc2C)nc1`, the minimum inhibitory concentration in assay [1] and in assay [2] was more than 50 µM each time.

Take `c1coc(CNc2nc(N3CCCCC3)nc3ccccc23)c1`: the minimum inhibitory concentration in assay [1] and in assay [2] was more than 50 µM each time.

For `OCCc1ccc(Nc2nccc(-c3nnc4ccccn34)n2)cc1`, the minimum inhibitory concentration in assay [1] and in assay [2] was more than 50 µM throughout.

As for `CC(=O)OCC1OC([S-])C(OC(C)=O)C(OC(C)=O)C1OC(C)=O.CCP(CC)CC.[Au+]` (stereo unspecified), the minimum inhibitory concentration in assay [1] is 0.78 µM; in assay [2], 0.39 µM.

`CC(C)C(NC(=O)Cc1cccc2ccccc12)C(=O)Nc1cccc(C#N)c1` (stereo unspecified): the minimum inhibitory concentration in assay [1] and in assay [2] was more than 50 µM each time.

Take `CCc1nc2ccc(Cl)cn2c1C(=O)NCc1ccc(N2CCC(c3ccc(OC(F)(F)F)cc3)CC2)cc1`: the minimum inhibitory concentration in assay [1] and in assay [2] was more than 50 µM each time.

As for `CN(C)c1cc(NC(=O)Nc2ccccc2)c2ccccc2n1`, the minimum inhibitory concentration in assay [1] and in assay [2] was more than 50 µM throughout.

`O=[N+]([O-])c1cn2c(n1)OC[C@@H](OCc1ccc(OC(F)(F)F)cc1)C2`: the minimum inhibitory concentration in assay [1] and in assay [2] was more than 50 µM each time.

Consider `CCN(CC)CCCN1CCN(C(=O)c2cccc(-c3noc(C(F)(F)F)n3)c2)CC1`, for which the minimum inhibitory concentration in assay [1] and in assay [2] was more than 50 µM throughout.

Turning to `Cc1nc(-c2ccccn2)nc(N(C)CCc2ccccc2)c1Cl`, the minimum inhibitory concentration in assay [1] and in assay [2] was 50 µM (≈ 16.9 µg/mL) in each case.

On to `Nc1ccc(C(=O)Nc2ccc(-c3nc4ccccc4o3)cc2)cc1`, for which the minimum inhibitory concentration in assay [1] and in assay [2] was more than 50 µM in each case.

Regarding `COc1cc(C(F)(F)F)nc2ccc(C)c(N)c12`, the minimum inhibitory concentration in assay [1] and in assay [2] was more than 50 µM in each case.

`CCOc1ccccc1C(=O)Nc1cccc(-c2nc3ncccn3c2C)c1`: the minimum inhibitory concentration in assay [1] and in assay [2] was more than 50 µM each time.

As to `CS(=O)(=O)Cc1nc2ccccc2oc1=O`, the minimum inhibitory concentration in assay [1] and in assay [2] was more than 50 µM in each case.

Turning to `COc1ccc(-c2onc(C(F)(F)F)c2-c2ccc(Cl)cc2)c(O)c1`, the minimum inhibitory concentration in assay [1] and in assay [2] was more than 50 µM each time.

Consider `O=C(NCc1ccoc1)N1CCN(Cc2ccc3c(c2)OCO3)CC1`, for which the minimum inhibitory concentration in assay [1] and in assay [2] was more than 50 µM in each case.

Consider `CCCCS(=O)(=O)Nc1ccc2cnn(C)c2c1`, for which the minimum inhibitory concentration in assay [1] and in assay [2] was more than 50 µM in each case.

On to `COc1ccc(-c2cnc3ccc(NCc4ccc(S(N)(=O)=O)cc4)nn23)cn1`, for which the minimum inhibitory concentration in assay [1] and in assay [2] was more than 50 µM in each case.

Consider `C[C@@H]1[C@H](O)[C@@H](C)/C=C/C=C/C=C/C=C/C=C/C=C/C=C/[C@H](O[C@@H]2O[C@H](C)[C@@H](O)[C@H](N)[C@@H]2O)C[C@@H]2O[C@](O)(C[C@@H](O)C[C@@H](O)[C@H](O)CC[C@@H](O)C[C@@H](O)CC(=O)O[C@H]1C)C[C@H](O)[C@H]2C(=O)O`, for which the minimum inhibitory concentration in assay [1] and in assay [2] was 50 µM (≈ 46.2 µg/mL) each time.

Take `CO/C=C(/C(=O)OC)c1ccccc1Oc1cc(Oc2ccccc2C#N)ncn1`: the minimum inhibitory concentration in assay [1] and in assay [2] was more than 50 µM each time.

As to `COc1ccc(CCN2CCC(NCc3cccc(N(C)C)c3)CC2)cc1`, the minimum inhibitory concentration in assay [1] and in assay [2] was more than 50 µM in each case.

For `Cc1cc(Nc2ccc(C(F)(F)F)cc2)n2ccnc2n1`, the minimum inhibitory concentration in assay [1] and in assay [2] was more than 50 µM in each case.

`Cc1ccc2nc(Cl)c(CNCc3cccs3)cc2c1`: the minimum inhibitory concentration in assay [1] and in assay [2] was more than 50 µM throughout.

Take `Cc1ccc(Oc2ccc(NC(=O)CNc3ccccc3N3CCCC3=O)cc2)cc1`: the minimum inhibitory concentration in assay [1] and in assay [2] was more than 50 µM in each case.

Take `CC(Oc1cccc(Cl)c1)C(=O)Nc1ccc2oc(-c3ccncc3)nc2c1` (stereo unspecified): the minimum inhibitory concentration in assay [1] and in assay [2] was more than 50 µM throughout.

For the compound `COc1ccc(-c2cnc3ccc(N4CCCC4)nn23)cc1OC`, the minimum inhibitory concentration in assay [1] and in assay [2] was more than 50 µM each time.

As to `CCn1cnc2c(Nc3cc(F)cc(F)c3)nc(C#N)nc21`, the minimum inhibitory concentration in assay [1] and in assay [2] was more than 50 µM throughout.

Take `CCc1ccc(C(NCc2nc(N)nc(N(C)C)n2)C(C)C)cc1` (stereo unspecified): the minimum inhibitory concentration in assay [1] and in assay [2] was more than 50 µM each time.

For `CCCS(=O)(=O)N1CCC(CO)(Cc2ccccc2C(F)(F)F)CC1`, the minimum inhibitory concentration in assay [1] and in assay [2] was more than 50 µM throughout.

On to `O=C(c1ccc(F)cc1)N(CCNc1ccccc1)c1ccccc1`, for which the minimum inhibitory concentration in assay [1] and in assay [2] was more than 50 µM each time.

Source of the values: the supplement of paper PMC6206229.
